Results published in PubChem BioAssay (NCI).
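A five-concentration, 48-hour dose response in 96-well plates underlies each endpoint, interpolated linearly between surrounding concentrations. The concentration for 50% growth inhibition is given as GI50. The concentration for full growth arrest is given as TGI.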

Tests used:
Assay in all cases: NCI tumour cell line growth inhibition, 48 h
786-0 renal = tested on: 786-0 renal
A498 renal = tested on: A498 renal
A549 NSCLC = tested on: A549 NSCLC
ACHN renal = tested on: ACHN renal
BT-549 breast = tested on: BT-549 breast
CAKI-1 renal = tested on: CAKI-1 renal
CCRF-CEM leukemia = tested on: CCRF-CEM leukemia
COLO 205 colon = tested on: COLO 205 colon
DU-145 prostate = tested on: DU-145 prostate
EKVX NSCLC = tested on: EKVX NSCLC
HCC-2998 colon = tested on: HCC-2998 colon
HCT-116 colon = tested on: HCT-116 colon
HCT-15 colon = tested on: HCT-15 colon
HL-60(TB) leukemia = tested on: HL-60(TB) leukemia
HOP-62 NSCLC = tested on: HOP-62 NSCLC
HOP-92 NSCLC = tested on: HOP-92 NSCLC
HS 578T breast = tested on: HS 578T breast
HT29 colon = tested on: HT29 colon
IGROV1 ovarian = tested on: IGROV1 ovarian
K-562 leukemia = tested on: K-562 leukemia
KM12 colon = tested on: KM12 colon
LOX IMVI melanoma = tested on: LOX IMVI melanoma
M14 melanoma = tested on: M14 melanoma
MALME-3M melanoma = tested on: MALME-3M melanoma
MCF7 breast = tested on: MCF7 breast
MDA-MB-231 breast = tested on: MDA-MB-231 breast
MDA-MB-435 = tested on: MDA-MB-435
MDA-MB-468 breast = tested on: MDA-MB-468 breast
MOLT-4 leukemia = tested on: MOLT-4 leukemia
NCI-H226 lung = tested on: NCI-H226 lung
NCI-H23 lung = tested on: NCI-H23 lung
NCI-H522 lung = tested on: NCI-H522 lung
OVCAR-3 ovarian = tested on: OVCAR-3 ovarian
OVCAR-5 ovarian = tested on: OVCAR-5 ovarian
OVCAR-8 ovarian = tested on: OVCAR-8 ovarian
PC-3 prostate = tested on: PC-3 prostate
RPMI-8226 leukemia = tested on: RPMI-8226 leukemia
RXF 393 renal = tested on: RXF 393 renal
SF-268 CNS = tested on: SF-268 CNS
SF-295 CNS = tested on: SF-295 CNS
SF-539 CNS = tested on: SF-539 CNS
SK-MEL-2 melanoma = tested on: SK-MEL-2 melanoma
SK-MEL-28 melanoma = tested on: SK-MEL-28 melanoma
SK-MEL-5 melanoma = tested on: SK-MEL-5 melanoma
SK-OV-3 ovarian = tested on: SK-OV-3 ovarian
SN12C renal = tested on: SN12C renal
SNB-19 CNS = tested on: SNB-19 CNS
SNB-75 CNS = tested on: SNB-75 CNS
T-47D breast = tested on: T-47D breast
TK-10 renal = tested on: TK-10 renal
UACC-257 melanoma = tested on: UACC-257 melanoma
UACC-62 melanoma = tested on: UACC-62 melanoma
UO-31 renal = tested on: UO-31 renal

## Cn1cc(-c2cc3nc(-c4cn(C)c5ncc(Br)cc45)cc(N)n3n2)c2cc(Cl)ccc21
786-0 renal
  GI50: 1760 nM
  TGI: 3200 nM
A498 renal
  GI50: 7390 nM
  TGI: 24000 nM
A549 NSCLC
  GI50: 1620 nM
  TGI: 3540 nM
ACHN renal
  GI50: 1550 nM
  TGI: 2880 nM
BT-549 breast
  GI50: 1910 nM
  TGI: 4240 nM
CAKI-1 renal
  GI50: 1450 nM
  TGI: 2950 nM
CCRF-CEM leukemia
  GI50: 2870 nM
  TGI: 9950 nM
COLO 205 colon
  GI50: 2560 nM
  TGI: 6650 nM
DU-145 prostate
  GI50: 1780 nM
  TGI: 3610 nM
EKVX NSCLC
  GI50: 1480 nM
  TGI: 3340 nM
HCC-2998 colon
  GI50: 1740 nM
  TGI: 3170 nM
HCT-116 colon
  GI50: 1550 nM
  TGI: 2960 nM
HCT-15 colon
  GI50: 1570 nM
  TGI: 3160 nM
HL-60(TB) leukemia
  GI50: 1990 nM
  TGI: 5060 nM
HOP-62 NSCLC
  GI50: 1720 nM
  TGI: 3480 nM
HOP-92 NSCLC
  GI50: 1860 nM
  TGI: 3740 nM
HS 578T breast
  GI50: 1890 nM
  TGI: 4480 nM
HT29 colon
  GI50: 1910 nM
  TGI: 3620 nM
IGROV1 ovarian
  GI50: 1710 nM
  TGI: 3380 nM
K-562 leukemia
  GI50: 1840 nM
  TGI: 5500 nM
KM12 colon
  GI50: 1490 nM
  TGI: 3960 nM
LOX IMVI melanoma
  GI50: 1610 nM
  TGI: 2960 nM
M14 melanoma
  GI50: 1710 nM
  TGI: 3250 nM
MALME-3M melanoma
  GI50: 1740 nM
  TGI: 3200 nM
MCF7 breast
  GI50: 1640 nM
  TGI: 3250 nM
MDA-MB-231 breast
  GI50: 1430 nM
  TGI: 2890 nM
MDA-MB-435
  GI50: 1760 nM
  TGI: 3380 nM
MDA-MB-468 breast
  GI50: 1320 nM
  TGI: 2680 nM
MOLT-4 leukemia
  GI50: 1710 nM
  TGI: 5070 nM
NCI-H226 lung
  GI50: 1990 nM
  TGI: 4420 nM
NCI-H23 lung
  GI50: 1910 nM
  TGI: 3980 nM
NCI-H522 lung
  GI50: 1870 nM
  TGI: 3840 nM
OVCAR-3 ovarian
  GI50: 1630 nM
  TGI: 3250 nM
OVCAR-5 ovarian
  GI50: 1520 nM
  TGI: 3390 nM
OVCAR-8 ovarian
  GI50: 2020 nM
  TGI: 4960 nM
PC-3 prostate
  GI50: 1760 nM
  TGI: 4090 nM
RPMI-8226 leukemia
  GI50: 2930 nM
  TGI: 9380 nM
RXF 393 renal
  GI50: 1820 nM
  TGI: 3470 nM
SF-268 CNS
  GI50: 2110 nM
  TGI: 5110 nM
SF-295 CNS
  GI50: 1750 nM
  TGI: 3430 nM
SF-539 CNS
  GI50: 1510 nM
  TGI: 2880 nM
SK-MEL-2 melanoma
  GI50: 1930 nM
  TGI: 4200 nM
SK-MEL-28 melanoma
  GI50: 1720 nM
  TGI: 3230 nM
SK-MEL-5 melanoma
  GI50: 1820 nM
  TGI: 4000 nM
SK-OV-3 ovarian
  GI50: 13700 nM
  TGI: 29100 nM
SN12C renal
  GI50: 1720 nM
  TGI: 3440 nM
SNB-19 CNS
  GI50: 1890 nM
  TGI: 3830 nM
SNB-75 CNS
  GI50: 1750 nM
  TGI: 4030 nM
T-47D breast
  GI50: 1580 nM
  TGI: 3630 nM
TK-10 renal
  GI50: 1600 nM
  TGI: 3130 nM
UACC-257 melanoma
  GI50: 1710 nM
  TGI: 3560 nM
UACC-62 melanoma
  GI50: 1470 nM
  TGI: 2850 nM
UO-31 renal
  GI50: 1540 nM
  TGI: 3330 nM
